# Experimental data as given in patent US7772241B2, “Variolin derivatives and their use as antitumor agents” (Pharma Mar S.A., priority 2001, dated 2010).
# Like-named read-outs stand apart in the source and are kept apart here.
# How the values were obtained:
# LoVo = assay: Inhibition of cells growth by colorimetric (SRB) assay, LoVo
# Description: (§1) The finality of these assays is to interrupt the growth of a “in vitro” tumor cell culture by means a continued exhibition of the cells to the sample to be testing.
# (§2) This form of the assay employs 96 well cell culture microplates of 9 mm diameter (Faircloth, 1988; Mosmann, 1983). Most of the cell lines are obtained from American Type Culture Collection (ATCC) derived from different human cancer types.
# (§3) Cells are maintained in RPMI 1640 10% FBS, supplemented with 0.1 g/l penicillin and 0.1 g/l streptomycin sulphate and then incubated at 37° C., 5% CO2 and 98% humidity. For the experiments, cells were harvested from subconfluent cultures using trypsin and resuspended in fresh medium before plating.
# (§4) Cells are seeded in 96 well microtiter plates, at 5×10^3 cells per well in aliquots of 195 μl medium, and they are allowed to attach to the plate surface by growing in drug free medium for 18 hours. Afterward, samples are added in aliquots of 5 μl in a ranging from 10 to 10^−8 μg/ml, dissolved in DMSO/EtOH/PBS (0.5:0.5:99). After 48 hours exposure, the antitumor effect are measured by the SRB methodology: cells are fixed by adding 50 μl of cold 50% (wt/vol) trichloroacetic acid (TCA) and incubating for 60 minutes at 4° C. Plates are washed with deionized water and dried. One hundred μl of SRB solution (0.4% wt/vol in 1% acetic acid) is added to each microtiter well and incubated for 10 minutes at room temperature. Unbound SRB is removed by washing with 1% acetic acid. Plates are air dried and bound stain is solubilized with Tris buffer. Optical densities are read on a automated spectrophotometric plate reader at a single wavelength of 490 nm.
# (§5) The values for mean +/−SD of data from triplicate wells are calculated. Some parameters for cellular responses can be calculated: GI=growth inhibition, TGI=total growth inhibition (cytostatic effect) and LC=cell killing (cytotoxic effect).
# LoVo-Dox = assay: Inhibition of cells growth by colorimetric (SRB) assay, LoVo-Dox
# Description: as §1, §2, §3, §4, §5
# PANC-1 = assay: Inhibition of cells growth by colorimetric (SRB) assay, PANC-1
# Description: as §1, §2, §3, §4, §5
# IGROV-ET = assay: Inhibition of cells growth by colorimetric (SRB) assay, IGROV-ET
# Description: as §1, §2, §3, §4, §5
# IGROV-1 = assay: Inhibition of cells growth by colorimetric (SRB) assay, IGROV-1
# Description: as §1, §2, §3, §4, §5
# K-562 = assay: Inhibition of cells growth by colorimetric (SRB) assay, K-562
# Description: as §1, §2, §3, §4, §5
# SK-OV-3 = assay: Inhibition of cells growth by colorimetric (SRB) assay, SK-OV-3
# Description: as §1, §2, §3, §4, §5
# A-549 = assay: Inhibition of cells growth by colorimetric (SRB) assay, A-549
# Description: as §1, §2, §3, §4, §5
# DU-145 = assay: Inhibition of cells growth by colorimetric (SRB) assay, DU-145
# Description: as §1, §2, §3, §4, §5
# HT-29 = assay: Inhibition of cells growth by colorimetric (SRB) assay, HT-29
# Description: as §1, §2, §3, §4, §5
# SK-BR-3 = assay: Inhibition of cells growth by colorimetric (SRB) assay, SK-BR-3; conditions: SRB assay, 48 hours exposure
# Description: as §1, §2, §3, §4, §5
# SK-MEL-28 = assay: Inhibition of cells growth by colorimetric (SRB) assay, SK-MEL-28
# Description: as §1, §2, §3, §4, §5
# LNCaP = assay: Inhibition of cells growth by colorimetric (SRB) assay, LNCaP
# Description: as §1, §2, §3, §4, §5
structure (smiles),measurement,setting,value
Cl.Nc1nccc(-c2c3c(N)ccnc3n3c(N)nccc23)n1 [Compound 91],TGI LOVO,"LoVo; SRB assay, 48 hours exposure",8.49E−07
same,GI50,"LoVo; read-out: GI50 LOVO, SRB assay, 48 hours exposure",0.201 µM
same,CC50,"LoVo; read-out: LC50 LOVO, SRB assay, 48 hours exposure",6.82 µM
same,TGI LOVO-DOX,"LoVo-Dox; SRB assay, 48 hours exposure",1.86E−06
same,GI50,"LoVo-Dox; read-out: GI50 LOVO-DOX, SRB assay, 48 hours exposure",0.774 µM
same,CC50,"LoVo-Dox; read-out: LC50 LOVO-DOX, SRB assay, 48 hours exposure",7.47 µM
same,TGI PANC-1,"PANC-1; SRB assay, 48 hours exposure",2.44E−06
same,GI50,"PANC-1; read-out: GI50 PANC-1, SRB assay, 48 hours exposure",0.896 µM
same,CC50,"PANC-1; read-out: LC50 PANC-1, SRB assay, 48 hours exposure",16.2 µM
same,TGI IGROV-ET,"IGROV-ET; SRB assay, 48 hours exposure",1.98E−06
same,GI50,"IGROV-ET; read-out: GI50 IGROV-ET, SRB assay, 48 hours exposure",1.16 µM
same,CC50,"IGROV-ET; read-out: LC50 IGROV-ET, SRB assay, 48 hours exposure",24.9 µM
same,TGI IGROV,"IGROV-1; SRB assay, 48 hours exposure",9.73E−07
same,GI50,"IGROV-1; read-out: GI50 IGROV, SRB assay, 48 hours exposure",0.241 µM
same,CC50,"IGROV-1; read-out: LC50 IGROV, SRB assay, 48 hours exposure",6.02 µM
same,TGI K-562,"K-562; SRB assay, 48 hours exposure",3.78E−06
same,GI50,"K-562; read-out: GI50 K-562, SRB assay, 48 hours exposure",1.32 µM
same,CC50,"K-562; read-out: LC50 K-562, SRB assay, 48 hours exposure",24.9 µM
same,TGI SKOV-3,"SK-OV-3; SRB assay, 48 hours exposure",2.12E−06
same,GI50,"SK-OV-3; read-out: GI50 SKOV-3, SRB assay, 48 hours exposure",0.7 µM
same,CC50,"SK-OV-3; read-out: LC50 SKOV-3, SRB assay, 48 hours exposure",24.9 µM
same,TGI A-549,"A-549; SRB assay, 48 hours exposure",2.09E−06
same,GI50,"A-549; read-out: GI50 A-549, SRB assay, 48 hours exposure",1.09 µM
same,CC50,"A-549; read-out: LC50 A-549, SRB assay, 48 hours exposure",8.29 µM
same,TGI DU-145,"DU-145; SRB assay, 48 hours exposure",1.34E−06
same,GI50,"DU-145; read-out: GI50 DU-145, SRB assay, 48 hours exposure",0.336 µM
same,CC50,"DU-145; read-out: LC50 DU-145, SRB assay, 48 hours exposure",24.9 µM
same,TGI HT-29,"HT-29; SRB assay, 48 hours exposure",2.49E−06
same,GI50,"HT-29; read-out: GI50 HT-29, SRB assay, 48 hours exposure",1.34 µM
same,CC50,"HT-29; read-out: LC50 HT-29, SRB assay, 48 hours exposure",24.9 µM
same,TGI SK-BR-3,SK-BR-3,6.45E−07
same,GI50,SK-BR-3; read-out: GI50 SK-BR-3,0.251 µM
same,CC50,SK-BR-3; read-out: LC50 SK-BR-3,1.65 µM
same,TGI MEL-28,"SK-MEL-28; SRB assay, 48 hours exposure",5.10E−07
same,GI50,"SK-MEL-28; read-out: GI50 MEL-28, SRB assay, 48 hours exposure",0.18 µM
same,CC50,"SK-MEL-28; read-out: LC50 MEL-28, SRB assay, 48 hours exposure",1.25 µM
Nc1nccc(-c2c3c(Cl)ccnc3n3c(N)nccc23)n1 [Compound 113],GI50,"LoVo; Homo sapiens, LoVo, 48 h, read-out: GI50 LOVO, SRB assay, 48 hours exposure",1.26 µM
same,CC50,"LoVo; Homo sapiens, LoVo, 48 h, read-out: LC50 LOVO, SRB assay, 48 hours exposure",32.1 µM
same,TGI LOVO,"LoVo; SRB assay, 48 hours exposure",7.83E−06
same,GI50,"LoVo-Dox; Homo sapiens, 48 h, read-out: GI50 LOVO-DOX, SRB assay, 48 hours exposure",2.35 µM
same,CC50,"LoVo-Dox; Homo sapiens, 48 h, read-out: LC50 LOVO-DOX, SRB assay, 48 hours exposure",32.1 µM
same,TGI LOVO-DOX,"LoVo-Dox; SRB assay, 48 hours exposure",1.18E−05
same,GI50,"PANC-1; Homo sapiens, PANC-1, 48 h, read-out: GI50 PANC-1, SRB assay, 48 hours exposure",1.11 µM
same,CC50,"PANC-1; Homo sapiens, PANC-1, 48 h, read-out: LC50 PANC-1, SRB assay, 48 hours exposure",32.1 µM
same,TGI PANC-1,"PANC-1; SRB assay, 48 hours exposure",2.76E−05
same,GI50,"LNCaP; Homo sapiens, LNCaP, 48 h, read-out: GI50 LN-caP, SRB assay, 48 hours exposure",1.57 µM
same,CC50,"LNCaP; Homo sapiens, LNCaP, 48 h, read-out: LC50 LN-caP, SRB assay, 48 hours exposure",15.6 µM
same,TGI LN-caP,"LNCaP; SRB assay, 48 hours exposure",2.39E−06
same,GI50,"IGROV-ET; Homo sapiens, 48 h, read-out: GI50 IGROV-ET, SRB assay, 48 hours exposure",1.3 µM
same,CC50,"IGROV-ET; Homo sapiens, 48 h, read-out: LC50 IGROV-ET, SRB assay, 48 hours exposure",32.1 µM
same,TGI IGROV-ET,"IGROV-ET; SRB assay, 48 hours exposure",6.00E−06
same,GI50,"IGROV-1; Homo sapiens, IGROV-1, 48 h, read-out: GI50 IGROV, SRB assay, 48 hours exposure",2.94 µM
same,CC50,"IGROV-1; Homo sapiens, IGROV-1, 48 h, read-out: LC50 IGROV, SRB assay, 48 hours exposure",24.1 µM
same,TGI IGROV,"IGROV-1; SRB assay, 48 hours exposure",8.53E−06
same,GI50,"K-562; Homo sapiens, K562, 48 h, read-out: GI50 K-562, SRB assay, 48 hours exposure",6.16 µM
same,CC50,"K-562; Homo sapiens, K562, 48 h, read-out: LC50 K-562, SRB assay, 48 hours exposure",32.1 µM
same,TGI K-562,"K-562; SRB assay, 48 hours exposure",2.00E−05
same,GI50,"SK-OV-3; Homo sapiens, SK-OV-3, 48 h, read-out: GI50 SKOV-3, SRB assay, 48 hours exposure",1.37 µM
same,CC50,"SK-OV-3; Homo sapiens, SK-OV-3, 48 h, read-out: LC50 SKOV-3, SRB assay, 48 hours exposure",32.1 µM
same,TGI SKOV-3,"SK-OV-3; SRB assay, 48 hours exposure",5.39E−06
same,GI50,"A-549; Homo sapiens, A549, 48 h, read-out: GI50 A-549, SRB assay, 48 hours exposure",4.3 µM
same,CC50,"A-549; Homo sapiens, A549, 48 h, read-out: LC50 A-549, SRB assay, 48 hours exposure",21.4 µM
same,TGI A-549,"A-549; SRB assay, 48 hours exposure",9.59E−06
same,GI50,"DU-145; Homo sapiens, DU-145, 48 h, read-out: GI50 DU-145, SRB assay, 48 hours exposure",1.51 µM
same,CC50,"DU-145; Homo sapiens, DU-145, 48 h, read-out: LC50 DU-145, SRB assay, 48 hours exposure",32.1 µM
same,TGI DU-145,"DU-145; SRB assay, 48 hours exposure",6.26E−06
same,GI50,"HT-29; Homo sapiens, HT-29, 48 h, read-out: GI50 HT-29, SRB assay, 48 hours exposure",4.72 µM
same,CC50,"HT-29; Homo sapiens, HT-29, 48 h, read-out: LC50 HT-29, SRB assay, 48 hours exposure",32.1 µM
same,TGI HT-29,"HT-29; SRB assay, 48 hours exposure",3.21E−05
same,GI50,"SK-MEL-28; Homo sapiens, SK-MEL-28, 48 h, read-out: GI50 MEL-28, SRB assay, 48 hours exposure",2.12 µM
same,CC50,"SK-MEL-28; Homo sapiens, SK-MEL-28, 48 h, read-out: LC50 MEL-28, SRB assay, 48 hours exposure",17.6 µM
same,TGI MEL-28,"SK-MEL-28; SRB assay, 48 hours exposure",6.29E−06
